ChEMBL document CHEMBL1201862, “PubChem BioAssay data set” (2004)
Calls of active or inactive are those of the source.

Key:
[1] = Luminescence Cell-Based Dose Confirmation HTS to Identify Activators of 5'UTR Stem-Loop Driven Alpha-Synuclein mRNA Translation in H4 Neuroglioblastoma Cells. [Related pubchem assays: 1829 (Project Summary), 1814 (Primary HTS)]; assay type: functional
[2] = Luminescence Cell-Based Dose Response HTS to Identify Activators of Luciferase Translation or Activity in H4 […] Cells. [Related pubchem assays: 1829 (Project Summary), 1814 (Primary HTS)]; assay type: functional
[3] = tested on: H4; experiment: Luminescence Cell-Based Dose Response HTS to Identify Activators of 5'UTR Stem-Loop Driven Prion Protein mRNA Translation in H4 Neuroglioblastoma Cells. [Related pubchem assays: 1829 (Project Summary), 1814 (Primary HTS)]; assay type: functional; conditions: Homo sapiens
[4] = inhibitors of intracellular T. cruzi replication, confirmation, NIH3T3 host cells, beta-gal luminescence (AID 2044); assay type: functional, cell-based;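 also: intracellular parasites grown in NIH/3T3 mouse fibroblasts as host cells; luminescent beta-galactosidase reporter signal from transgenic T. cruzi replicating inside host cells; inhibitors lower the luminescence signal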
[5] = cytotoxicity toward NIH3T3 fibroblasts, dose response, counter-screen, cell-based, ATP luminescence, mouse fibroblasts (AID 2010); assay type: functional;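 also: cells exposed to compound for about 90 hours before reading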
[6] = tested on: Vero; experiment: cells; assay type: functional; conditions: Chlorocebus sabaeus
[7] = cells
[8] = A Cell Based Secondary Assay To Explore Cytotoxicity of Compounds that Sensitize Mycobacterium Tuberculosis to Beta-Lactam Antibiotics.; assay type: functional
[9] = HEp-2 cell cytotoxicity, dose response, cytotoxicity control for RSV inhibitor project, HTS (AID 2410); assay type: functional; conditions: human respiratory syncytial virus
[10] = cells; remark: listed apart in the source
[11] = molecular target: T1, DNA repair and recombination protein RAD54-like (Homo sapiens, UniProt Q92698); experiment: inhibitors of human RAD54 branch migration, confirmation, biochemical, fluorescence, cherry-picked samples, dose series (AID 651657); assay type: functional
T1 sequence (Q92698 whole entry): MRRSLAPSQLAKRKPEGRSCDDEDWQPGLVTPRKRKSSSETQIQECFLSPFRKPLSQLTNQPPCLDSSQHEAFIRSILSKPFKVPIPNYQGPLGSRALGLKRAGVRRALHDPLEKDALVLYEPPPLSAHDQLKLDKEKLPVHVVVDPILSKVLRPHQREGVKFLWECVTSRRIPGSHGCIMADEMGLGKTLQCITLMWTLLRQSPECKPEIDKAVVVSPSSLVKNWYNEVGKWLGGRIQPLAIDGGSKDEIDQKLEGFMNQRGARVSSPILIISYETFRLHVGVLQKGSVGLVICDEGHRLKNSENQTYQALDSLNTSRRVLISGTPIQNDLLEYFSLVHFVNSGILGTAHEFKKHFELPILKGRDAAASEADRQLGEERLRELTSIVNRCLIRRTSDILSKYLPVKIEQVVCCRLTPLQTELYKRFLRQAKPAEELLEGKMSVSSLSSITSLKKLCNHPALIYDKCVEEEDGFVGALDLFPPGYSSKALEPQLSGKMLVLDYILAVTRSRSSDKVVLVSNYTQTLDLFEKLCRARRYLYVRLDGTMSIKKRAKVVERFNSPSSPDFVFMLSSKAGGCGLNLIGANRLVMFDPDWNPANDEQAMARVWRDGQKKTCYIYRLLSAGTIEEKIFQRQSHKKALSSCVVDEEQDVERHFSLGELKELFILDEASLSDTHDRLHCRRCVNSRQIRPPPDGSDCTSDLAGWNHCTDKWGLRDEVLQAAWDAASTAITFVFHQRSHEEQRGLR

[12] = molecular target: T2, DNA repair protein RAD52 homolog (Homo sapiens, UniProt P43351); assay type: functional, biochemical
T2 sequence (P43351 whole entry): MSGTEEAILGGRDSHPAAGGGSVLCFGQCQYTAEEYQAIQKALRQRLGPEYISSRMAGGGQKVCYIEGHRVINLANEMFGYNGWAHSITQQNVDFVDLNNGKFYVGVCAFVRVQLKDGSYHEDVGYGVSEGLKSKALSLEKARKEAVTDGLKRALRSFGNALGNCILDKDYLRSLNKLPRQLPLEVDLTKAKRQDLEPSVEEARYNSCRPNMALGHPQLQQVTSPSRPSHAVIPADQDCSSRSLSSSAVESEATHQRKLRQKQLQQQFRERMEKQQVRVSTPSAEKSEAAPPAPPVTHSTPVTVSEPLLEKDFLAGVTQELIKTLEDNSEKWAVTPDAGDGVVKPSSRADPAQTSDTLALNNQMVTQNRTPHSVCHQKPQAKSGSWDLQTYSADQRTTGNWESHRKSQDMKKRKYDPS

For `O=C(NN(c1ccccc1)c1ccccc1)c1ccc([N+](=O)[O-])o1`, the EC50 [1] was 44.6 µM (active), the EC50 [2] was > 120 µM (not active) and the EC50 [3] was > 120 µM (not active). The EC50 [4] was < 100 nM (active), the EC50 [5] was > 60 µM (not active) and the CC50 [6] was 17.4 µM (active). For the same compound, the EC50 [7] was 140 nM (active).
For `Cc1cc(Cl)ccc1OC(C)C(=O)NCCCCc1ccccc1` (configuration not stated), the CC50 [8] was > 40 µM (active).
For `Oc1nc(COc2ccc(Br)cc2Cl)nc2ccccc12`, the CC50 [9] was 23.6 µM (active) and the IC50 [10] was 30.7 µM (active).
In the case of `CC(CCc1ccc(O)cc1)NC(c1ccccc1)c1ccc(Cl)cc1` (configuration not stated), the CC50 [9] is reported as 10.3 µM (active) and the IC50 [10] is reported as 11.8 µM (active).
For `CN(C)CCCN(C(=O)c1ccco1)c1nc(-c2ccc(Cl)cc2)cs1`, the EC50 [4] was < 100 nM (active), the EC50 [5] was > 60 µM (not active) and the CC50 [6] was > 25 µM (active). For the same compound, the AC50 [11] was 64.1 µM (active), the AC50 [12] was 17.3 µM (active) and the EC50 [7] was 254 nM (active).
With `NC(=O)[C@@H]1CC2(CC(c3cccc(NC(=O)COc4ccc(Cl)cc4)c3)=NO2)CN1C(=O)COc1ccc(Cl)cc1` (some centres not stated) the CC50 [8] was > 40 µM (active).
In the case of `COc1cccc(NC(=O)c2cc(-c3cccnc3)nc3c(Cl)cccc23)c1`, the CC50 [8] is reported as 33.5 µM (active).
For `C/C(=N\NC(=O)c1ccc(NS(=O)(=O)c2cccs2)cc1)c1ccc(C(C)(C)C)cc1`, the CC50 [9] was 20.6 µM (active) and the IC50 [10] was 8.48 µM (active).
